Experimental findings from publication PMC5218480 (PLoS ONE, 2017) are described below.

Structures are written as SMILES.

For the assay, the system named is MV-4-11 cells. The assay can be described thus: Gene expression microarray analysis (Affymetrix PrimeView) and GSEA. The class given is cell-based, human. Set-up: RFU PODN (11730768_x_at) / Fold change /veh PODN (11730768_x_at) / RFU LINC00158 (11744669_a_at) / Fold change /veh LINC00158 (11744669_a_at) / RFU DUSP10 (11751237_a_at) / Fold change /veh DUSP10 (11751237_a_at) / RFU ID3 (11757404_x_at) / Fold change /veh ID3 (11757404_x_at) / RFU PLEKHG5 (11737974_s_at) / Fold change /veh PLEKHG5 (11737974_s_at) / RFU LRRC4B (11730491_at) / Fold change /veh LRRC4B (11730491_at) / RFU GIMAP4 (11747438_a_at) / Fold change /veh GIMAP4 (11747438_a_at) / RFU KRT8 (11758183_x_at) / Fold change /veh KRT8 (11758183_x_at) / RFU CNN1 (11734310_a_at) / Fold change /veh CNN1 (11734310_a_at) / RFU VPS37D (11726825_at) / Fold change /veh VPS37D (11726825_at) / RFU C10orf10 (11716522_x_at) / Fold change /veh C10orf10 (11716522_x_at) / RFU KIR2DL2 /// KIR2DL4 /// KIR2DL5A /// KIR2DL5B /// KIR2DS1 /// KIR2DS2 /// KIR2DS3 /// KIR2DS4 /// KIR3DL3 /// KIR3DL3 /// KIR3DS1 (11738374_at) / Fold change /veh KIR2DL2 /// KIR2DL4 /// KIR2DL5A /// KIR2DL5B /// KIR2DS1 /// KIR2DS2 /// KIR2DS3 /// KIR2DS4 /// KIR3DL3 /// KIR3DL3 /// KIR3DS1 (11738374_at) / RFU C1QL1 (11718748_at) / Fold change /veh C1QL1 (11718748_at) / RFU TMPRSS4 (11747572_a_at) / Fold change /veh TMPRSS4 (11747572_a_at) / RFU HAMP (11756126_x_at) / Fold change /veh HAMP (11756126_x_at) / RFU RNFT2 (11725882_a_at) / Fold change /veh RNFT2 (11725882_a_at) / RFU NR4A2 (11747474_a_at) / Fold change /veh NR4A2 (11747474_a_at) / RFU ABCC12 (11746883_a_at) / Fold change /veh ABCC12 (11746883_a_at) / RFU TMEM136 (11760407_x_at) / Fold change /veh TMEM136 (11760407_x_at) / RFU CLDN22 /// WWC2 (11732394_at) / Fold change /veh CLDN22 /// WWC2 (11732394_at) / RFU HLA-DPB1 (11760878_x_at) / Fold change /veh HLA-DPB1 (11760878_x_at) / RFU SPINT1 (11716480_a_at) / Fold change /veh SPINT1 (11716480_a_at) / RFU GAP43 (11754022_s_at) / Fold change /veh GAP43 (11754022_s_at) / RFU A4GNT (11735810_at) / Fold change /veh A4GNT (11735810_at) / RFU PRB3 (11715151_x_at) / Fold change /veh PRB3 (11715151_x_at) / RFU TUBB4B (11761932_at) / Fold change /veh TUBB4B (11761932_at) / RFU CAPN14 (11732068_a_at) / Fold change /veh CAPN14 (11732068_a_at) / RFU TMCC2 (11721928_a_at) / Fold change /veh TMCC2 (11721928_a_at) / RFU IRGQ (11745062_a_at) / Fold change /veh IRGQ (11745062_a_at) / RFU FAM174B (11720279_a_at) / Fold change /veh FAM174B (11720279_a_at) / RFU TMPRSS4 (11748680_a_at) / Fold change /veh TMPRSS4 (11748680_a_at) / RFU FAM212B (11763350_a_at) / Fold change /veh FAM212B (11763350_a_at) / RFU PLEKHG5 (11743358_a_at) / Fold change /veh PLEKHG5 (11743358_a_at) / RFU ZSCAN30 (11745921_a_at) / Fold change /veh ZSCAN30 (11745921_a_at) / RFU CMKLR1 (11741424_a_at) / Fold change /veh CMKLR1 (11741424_a_at) / RFU LOC101060620 /// MAPK8IP1 (11723275_at) / Fold change /veh LOC101060620 /// MAPK8IP1 (11723275_at) / RFU SPTSSB (11747773_x_at) / Fold change /veh SPTSSB (11747773_x_at) / RFU PRSS12 (11739890_at) / Fold change /veh PRSS12 (11739890_at) / RFU BIN1 (11741810_x_at) / Fold change /veh BIN1 (11741810_x_at) / RFU WNT11 (11732464_a_at) / Fold change /veh WNT11 (11732464_a_at) / RFU C10orf10 (11716521_a_at) / Fold change /veh C10orf10 (11716521_a_at) / RFU C5orf56 (11738089_at) / Fold change /veh C5orf56 (11738089_at) / RFU CYB561 (11721691_x_at) / Fold change /veh CYB561 (11721691_x_at) / RFU ANKRD19P (11752326_a_at) / Fold change /veh ANKRD19P (11752326_a_at) / RFU OR2T12 /// OR2T33 /// OR2T8 (11738714_s_at) / Fold change /veh OR2T12 /// OR2T33 /// OR2T8 (11738714_s_at) / RFU VCAN (11748164_a_at) / Fold change /veh VCAN (11748164_a_at) / RFU JSRP1 (11732532_at) / Fold change /veh JSRP1 (11732532_at) / RFU KRTAP10-11 (11738290_x_at) / Fold change /veh KRTAP10-11 (11738290_x_at) / RFU MYO3A (11730013_a_at) / Fold change /veh MYO3A (11730013_a_at) / RFU EBF3 (11725865_a_at) / Fold change /veh EBF3 (11725865_a_at) / RFU CAMK2N1 (11719241_x_at) / Fold change /veh CAMK2N1 (11719241_x_at) / RFU C5orf56 (11738088_a_at) / Fold change /veh C5orf56 (11738088_a_at) / RFU OLFML3 (11715873_a_at) / Fold change /veh OLFML3 (11715873_a_at) / RFU LOC100653217 /// NTM (11731650_a_at) / Fold change /veh LOC100653217 /// NTM (11731650_a_at) / RFU MAPK11 (11762145_a_at) / Fold change /veh MAPK11 (11762145_a_at) / RFU FIZ1 (11724087_x_at) / Fold change /veh FIZ1 (11724087_x_at) / RFU OASL (11726364_x_at) / Fold change /veh OASL (11726364_x_at) / RFU SOX15 (11748057_x_at) / Fold change /veh SOX15 (11748057_x_at) / RFU CD79A (11719716_a_at) / Fold change /veh CD79A (11719716_a_at) / RFU HIST1H1D (11736915_at) / Fold change /veh HIST1H1D (11736915_at) / RFU CASKIN2 (11723855_a_at) / Fold change /veh CASKIN2 (11723855_a_at) / RFU LOC730098 (11760151_x_at) / Fold change /veh LOC730098 (11760151_x_at) / RFU OR4N2 (11742367_at) / Fold change /veh OR4N2 (11742367_at) / RFU PRRT2 (11749266_a_at) / Fold change /veh PRRT2 (11749266_a_at) / RFU SNX32 (11753110_a_at) / Fold change /veh SNX32 (11753110_a_at) / RFU CDHR5 (11726645_a_at) / Fold change /veh CDHR5 (11726645_a_at) / RFU RCAN1 (11760418_a_at) / Fold change /veh RCAN1 (11760418_a_at) / RFU FAM167A (11723789_a_at) / Fold change /veh FAM167A (11723789_a_at) / RFU FAM26E (11764081_at) / Fold change /veh FAM26E (11764081_at) / RFU ISYNA1 (11749810_s_at) / Fold change /veh ISYNA1 (11749810_s_at) / RFU ACY1 (11761880_at) / Fold change /veh ACY1 (11761880_at) / RFU 11764098_at / Fold change /veh 11764098_at / RFU SAMD14 (11745864_x_at) / Fold change /veh SAMD14 (11745864_x_at) / RFU NPB (11741838_a_at) / Fold change /veh NPB (11741838_a_at) / RFU TMPRSS6 (11731388_a_at) / Fold change /veh TMPRSS6 (11731388_a_at) / RFU KRTAP10-2 (11738614_at) / Fold change /veh KRTAP10-2 (11738614_at) / RFU ARHGAP8 /// PRR5-ARHGAP8 (11727945_x_at) / Fold change /veh ARHGAP8 /// PRR5-ARHGAP8 (11727945_x_at) / RFU KRTAP5-7 /// NADSYN1 (11734609_at) / Fold change /veh KRTAP5-7 /// NADSYN1 (11734609_at) / RFU RASL12 (11751679_a_at) / Fold change /veh RASL12 (11751679_a_at) / RFU CDKN2B (11736163_a_at) / Fold change /veh CDKN2B (11736163_a_at) / RFU PRF1 (11729649_at) / Fold change /veh PRF1 (11729649_at) / RFU, ZNF638 /// ZNF638-IT1 / Fold change vs veh, ZNF638 /// ZNF638-IT1 / RFU, PANK3 / Fold change vs veh, PANK3 / RFU, SH3YL1 / Fold change vs veh, SH3YL1 / RFU, ZEB2 / Fold change vs veh, ZEB2 / RFU, NRIP1 / Fold change vs veh, NRIP1 / RFU, PTTG1IP / Fold change vs veh, PTTG1IP / RFU, CAPN2 / Fold change vs veh, CAPN2 / RFU, MED14 / Fold change vs veh, MED14 / RFU, SNORA58 / Fold change vs veh, SNORA58 / RFU, C1orf63 / Fold change vs veh, C1orf63 / RFU, LRRFIP1 / Fold change vs veh, LRRFIP1 / RFU, NDUFAF7 / Fold change vs veh, NDUFAF7 / RFU, SLC12A2 / Fold change vs veh, SLC12A2 / RFU, IBTK / Fold change vs veh, IBTK / RFU, ESF1 / Fold change vs veh, ESF1 / Fold change vs veh, TMEM50B / RFU, TAOK1 / Fold change vs veh, TAOK1 / RFU, ACBD3 / Fold change vs veh, ACBD3 / RFU, TMA16 / Fold change vs veh, TMA16 / RFU, RWDD3 / Fold change vs veh, RWDD3 / RFU, BCAT1 / Fold change vs veh, BCAT1 / RFU, EDEM3 / Fold change vs veh, EDEM3 / RFU, TMEM33 / Fold change vs veh, TMEM33 / RFU, WDR75 / Fold change vs veh, WDR75 / RFU, AHCTF1 / Fold change vs veh, AHCTF1 / RFU, TFRC / Fold change vs veh, TFRC / RFU, ZDHHC17 / Fold change vs veh, ZDHHC17 / RFU, NOM1 / Fold change vs veh, NOM1 / RFU, ARL8B / Fold change vs veh, ARL8B / RFU, ZBTB11 / Fold change vs veh, ZBTB11 / RFU, TAMM41 / Fold change vs veh, TAMM41 / RFU, KIAA1704 /// LOC100996395 / Fold change vs veh, KIAA1704 /// LOC100996395 / RFU, ING1 / Fold change vs veh, ING1 / RFU, TRMT61B / Fold change vs veh, TRMT61B / RFU, FUBP3 / Fold change vs veh, FUBP3 / RFU, TP53 / Fold change vs veh, TP53 / RFU, TNKS2 / Fold change vs veh, TNKS2 / RFU, ZFP14 / Fold change vs veh, ZFP14 / RFU, ACTR2 / Fold change vs veh, ACTR2 / RFU, PPP3R1 / Fold change vs veh, PPP3R1 / RFU, PIK3R1 / Fold change vs veh, PIK3R1 / RFU, HNRNPA1 / Fold change vs veh, HNRNPA1 / RFU, RNF170 / Fold change vs veh, RNF170 / RFU, ZNF28 / Fold change vs veh, ZNF28 / RFU, RNGTT / Fold change vs veh, RNGTT / RFU, OGT / Fold change vs veh, OGT / RFU, BRD1 / Fold change vs veh, BRD1 / RFU, MARS / Fold change vs veh, MARS / RFU, ZNF655 / Fold change vs veh, ZNF655 / RFU, FAHD1 / Fold change vs veh, FAHD1 / RFU, BDP1 / Fold change vs veh, BDP1 / RFU, LRRCC1 / Fold change vs veh, LRRCC1 / RFU, ARID1A / Fold change vs veh, ARID1A / RFU, ZNF146 / Fold change vs veh, ZNF146 / RFU, ZNF330 / Fold change vs veh, ZNF330 / RFU, GPN3 / Fold change vs veh, GPN3 / RFU, C9orf123 / Fold change vs veh, C9orf123 / RFU, N4BP2L2 / Fold change vs veh, N4BP2L2 / RFU, ARFIP1 / Fold change vs veh, ARFIP1 / RFU, FAM179B / Fold change vs veh, FAM179B / RFU, BCL10 / Fold change vs veh, BCL10 / RFU, UHRF1BP1L / Fold change vs veh, UHRF1BP1L / RFU, BET1 / Fold change vs veh, BET1 / RFU, CNOT2 / Fold change vs veh, CNOT2 / RFU, ZNF268 / Fold change vs veh, ZNF268 / Fold change vs veh, ZNF507 / RFU, DGCR2 / Fold change vs veh, DGCR2 / RFU, WDSUB1 / Fold change vs veh, WDSUB1 / Fold change vs veh, HSP90B1 /// MIR3652 / RFU, ADSS / Fold change vs veh, ADSS / RFU, GK / Fold change vs veh, GK / RFU, ZNF148 / Fold change vs veh, ZNF148 / RFU, TAF9 / Fold change vs veh, TAF9 / RFU, SLC1A5 / Fold change vs veh, SLC1A5 / RFU, SLMO2 / Fold change vs veh, SLMO2 / RFU, ABCC4 / Fold change vs veh, ABCC4 / RFU, LOC101060439 /// RAP1B / Fold change vs veh, LOC101060439 /// RAP1B / RFU, RFX7 / Fold change vs veh, RFX7 / RFU, GTPBP10 / Fold change vs veh, GTPBP10 / RFU, CNEP1R1 / Fold change vs veh, CNEP1R1 / RFU, BIVM-ERCC5 /// ERCC5 / Fold change vs veh, BIVM-ERCC5 /// ERCC5 / RFU, ILF3 / Fold change vs veh, ILF3 / RFU 11762660_at / Fold change /veh 11762660_at / RFU VCAN (11757783_s_at) / Fold change /veh VCAN (11757783_s_at) / RFU DDX43 (11728927_at) / Fold change /veh DDX43 (11728927_at) / RFU KRT8 (11758188_x_at) / Fold change /veh KRT8 (11758188_x_at) / RFU NKD1 (11759106_at) / Fold change /veh NKD1 (11759106_at) / RFU SRD5A1 (11742802_a_at) / Fold change /veh SRD5A1 (11742802_a_at) / RFU TPSAB1 /// TPSB2 (11721975_s_at) / Fold change /veh TPSAB1 /// TPSB2 (11721975_s_at) / RFU GSTM3 (11746129_a_at) / Fold change /veh GSTM3 (11746129_a_at) / RFU IL23R (11737362_x_at) / Fold change /veh IL23R (11737362_x_at) / RFU TMEM51 (11727254_a_at) / Fold change /veh TMEM51 (11727254_a_at) / RFU PIWIL2 (11732686_x_at) / Fold change /veh PIWIL2 (11732686_x_at) / RFU ORM1 (11744905_x_at) / Fold change /veh ORM1 (11744905_x_at) / RFU CCDC152 (11743942_at) / Fold change /veh CCDC152 (11743942_at) / RFU ECM1 (11717891_a_at) / Fold change /veh ECM1 (11717891_a_at) / RFU IL23R (11748794_a_at) / Fold change /veh IL23R (11748794_a_at) / RFU TNFAIP8L3 (11732012_x_at) / Fold change /veh TNFAIP8L3 (11732012_x_at) / RFU MBOAT4 (11741988_at) / Fold change /veh MBOAT4 (11741988_at) / RFU 11764193_at / Fold change /veh 11764193_at / RFU TMEM53 (11763286_at) / Fold change /veh TMEM53 (11763286_at) / RFU MAGEB2 (11727129_at) / Fold change /veh MAGEB2 (11727129_at) / RFU TMEM200A (11744735_a_at) / Fold change /veh TMEM200A (11744735_a_at) / RFU CCDC152 (11751479_a_at) / Fold change /veh CCDC152 (11751479_a_at) / RFU FAM211A (11726209_a_at) / Fold change /veh FAM211A (11726209_a_at) / RFU RGS16 (11746705_a_at) / Fold change /veh RGS16 (11746705_a_at) / RFU VCAN (11755009_s_at) / Fold change /veh VCAN (11755009_s_at) / RFU RHOB (11743442_s_at) / Fold change /veh RHOB (11743442_s_at) / RFU RGS16 (11720943_a_at) / Fold change /veh RGS16 (11720943_a_at) / RFU RGS16 (11720944_at) / Fold change /veh RGS16 (11720944_at) / RFU, VPS4B / Fold change vs veh, VPS4B / RFU, CREB1 / Fold change vs veh, CREB1 / RFU, DNAJC13 / Fold change vs veh, DNAJC13 / RFU, GNAQ / Fold change vs veh, GNAQ / RFU, CDK5R1 / Fold change vs veh, CDK5R1 / RFU, ZRANB3 / Fold change vs veh, ZRANB3 / RFU, CUL4A / Fold change vs veh, CUL4A / RFU, CCNY / Fold change vs veh, CCNY / RFU, UFL1 / Fold change vs veh, UFL1 / RFU, COG3 / Fold change vs veh, COG3 / RFU, DIAPH2 / Fold change vs veh, DIAPH2 / RFU, SKA2 / Fold change vs veh, SKA2 / RFU, AFF3 / Fold change vs veh, AFF3 / RFU, LMF1 / Fold change vs veh, LMF1 / RFU, IPO11 / Fold change vs veh, IPO11 / RFU, DFFB / Fold change vs veh, DFFB / RFU, FOXP1 / Fold change vs veh, FOXP1 / RFU, CARD8 / Fold change vs veh, CARD8 / RFU, STRN3 / Fold change vs veh, STRN3 / RFU, ADK / Fold change vs veh, ADK / RFU, RASSF2 / Fold change vs veh, RASSF2 / RFU, WIPF1 / Fold change vs veh, WIPF1 / RFU, LARP1B / Fold change vs veh, LARP1B / RFU, RASA1 / Fold change vs veh, RASA1 / RFU, RB1 / Fold change vs veh, RB1 / RFU, PPFIA1 / Fold change vs veh, PPFIA1 / RFU, MAT2A / Fold change vs veh, MAT2A / RFU, CCT5 / Fold change vs veh, CCT5 / RFU, WDR92 / Fold change vs veh, WDR92 / RFU, CUX1 / Fold change vs veh, CUX1 / RFU, TTC7A / Fold change vs veh, TTC7A / RFU, TMEM135 / Fold change vs veh, TMEM135 / RFU, DEPTOR / Fold change vs veh, DEPTOR / RFU, CPM / Fold change vs veh, CPM / RFU, DNAJB6 / Fold change vs veh, DNAJB6 / RFU, CACNA2D3 / Fold change vs veh, CACNA2D3 / RFU, DTX4 / Fold change vs veh, DTX4 / RFU, TFCP2 / Fold change vs veh, TFCP2 / RFU, GMCL1 /// GMCL1P1 / Fold change vs veh, GMCL1 /// GMCL1P1 / RFU, AEBP2 / Fold change vs veh, AEBP2 / RFU, SNHG1 /// SNORD22 /// SNORD25 /// SNORD26 /// SNORD27 /// SNORD28 /// SNORD29 /// SNORD31 / Fold change vs veh, SNHG1 /// SNORD22 /// SNORD25 /// SNORD26 /// SNORD27 /// SNORD28 /// SNORD29 /// SNORD31 / Fold change (Aza/veh), C12orf56 (ProbeSet 11735607_a_at) / Fold change (ACY-1035/veh), C12orf56 (ProbeSet 11735607_a_at) / Fold change (Aza/veh), FGFR1OP (ProbeSet 11751329_s_at) / Fold change (ACY-1035/veh), FGFR1OP (ProbeSet 11751329_s_at) / Fold change (Aza/veh), VPS36 (ProbeSet 11739960_a_at) / Fold change (ACY-1035/veh), VPS36 (ProbeSet 11739960_a_at) / RFU SYPL1 (11715823_x_at) / Fold change /veh SYPL1 (11715823_x_at) / RFU IGFBP7 (11715501_s_at) / Fold change /veh IGFBP7 (11715501_s_at) / RFU REEP3 (11722064_at) / Fold change /veh REEP3 (11722064_at) / RFU IGLL1 (11728026_x_at) / Fold change /veh IGLL1 (11728026_x_at): dose or concentration left out as unconfirmed. The settings on record: ProbeSet 11748335_a_at; LIST B.

On to `Nc1ccc(-c2cccs2)cc1NC(=O)c1ccc2c(c1)cc(C1CC1)n2CCN1CCOCC1` [ACY-1035], for which the “RFU, SLMO2” value is given as 145.26 RFU.
